Measured values published in ChEMBL document CHEMBL4387743, “Design, synthesis and structure activity relationships of indazole and indole derivatives as potent glucagon receptor antagonists” (Bioorg Med Chem Lett, 2019).

Experiments:
Glucagon receptor = Glucagon receptor (Homo sapiens, UniProt P47871); experiment: Antagonist activity at full length human recombinant GCGR transfected in HEK293 cells assessed as inhibition of glucagon-stimulated cAMP by LANCE assay; assay type: functional, cell-based
Sequence of Glucagon receptor (P47871 whole entry): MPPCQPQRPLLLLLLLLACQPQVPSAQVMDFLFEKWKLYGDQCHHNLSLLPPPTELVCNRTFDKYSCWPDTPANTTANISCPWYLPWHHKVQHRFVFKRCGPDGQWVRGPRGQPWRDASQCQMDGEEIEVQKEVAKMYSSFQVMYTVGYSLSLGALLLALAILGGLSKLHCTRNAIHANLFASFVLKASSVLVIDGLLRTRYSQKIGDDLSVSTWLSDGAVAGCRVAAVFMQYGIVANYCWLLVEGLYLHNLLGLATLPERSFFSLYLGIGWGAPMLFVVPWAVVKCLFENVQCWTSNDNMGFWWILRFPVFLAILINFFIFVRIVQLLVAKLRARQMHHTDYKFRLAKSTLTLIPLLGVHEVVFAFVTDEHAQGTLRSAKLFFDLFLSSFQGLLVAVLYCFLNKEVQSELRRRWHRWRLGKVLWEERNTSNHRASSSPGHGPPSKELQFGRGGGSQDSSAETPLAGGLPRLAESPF

[1] = Clearance in C57 black mouse at 5 mg/kg, iv; assay type: ADME, organism-based; settings: in vivo
[2] = Volume of distribution at steady state in C57 black mouse at 5 mg/kg, iv; assay type: ADME, organism-based; settings: in vivo, read-out: Vdss
[3] = Elimination half life in C57 black mouse at 5 mg/kg, iv; assay type: ADME, organism-based; settings: in vivo, read-out: beta t1/2 (converted)
[4] = AUClast in C57 black mouse at 20 mg/kg, po; assay type: ADME, organism-based; set-up: dose 20 mg/kg, time 0 - last, route oral; settings: in vivo
[5] = Cmax in C57 black mouse at 20 mg/kg, po; assay type: ADME, organism-based; set-up: dose 20 mg/kg, route oral; settings: in vivo
[6] = Oral bioavailability in C57 black mouse at 20 mg/kg; assay type: ADME, organism-based; settings: in vivo
[7] = Elimination half life in C57 black mouse at 20 mg/kg, po; assay type: ADME, organism-based; settings: in vivo, read-out: beta t1/2 (converted)
[8] = Clearance in Sprague Dawley rat at 2 mg/kg, iv; assay type: ADME, organism-based; settings: in vivo
[9] = Volume of distribution at steady state in Sprague Dawley rat at 2 mg/kg, iv; assay type: ADME, organism-based; settings: in vivo, read-out: Vdss
[10] = Elimination half life in Sprague Dawley rat at 2 mg/kg, iv; assay type: ADME, organism-based; settings: in vivo, read-out: beta t1/2 (converted)
[11] = Elimination half life in Sprague Dawley rat at 10 mg/kg, po; assay type: ADME, organism-based; settings: in vivo, read-out: beta t1/2 (converted)
[12] = AUClast in Sprague Dawley rat at 10 mg/kg, po; assay type: ADME, organism-based; set-up: dose 10 mg/kg, route oral, time 0 - last; settings: in vivo
[13] = Cmax in Sprague Dawley rat at 10 mg/kg, po; assay type: ADME, organism-based; set-up: dose 10 mg/kg, route oral; settings: in vivo
[14] = Oral bioavailability in Sprague Dawley rat at 10 mg/kg; assay type: ADME, organism-based; settings: in vivo

CC(C)CC(c1ccc(C(=O)NCCC(=O)O)cc1)n1ncc2cc(-c3ccc(N4CCN(C)CC4)cc3)ccc21 (racemic)
Ki (Glucagon receptor): 1250 nM

Cc1cc(C(F)(F)F)ccc1-c1ccc2nn(C(CC(C)C)c3ccc(C(=O)NCCC(=O)O)cc3)cc2c1Cl (racemic)
Ki (Glucagon receptor): 19 nM | clearance [1]: 1.89 mL/min/kg | Vd [2]: 0.9 L/kg | half-life [3]: 396 min | AUC(0-t) [4]: 290 µM·h | Cmax [5]: 18.5 µM | bioavailability [6]: 97.7%

Cc1c(-c2ccc(C(F)(F)F)cc2Cl)ccc2nn(C(CC(C)C)c3ccc(C(=O)NCCC(=O)O)cc3)cc12 (racemic)
Ki (Glucagon receptor): 29 nM

Cc1cc(C(F)(F)F)ccc1-c1ccc2c(ccn2C(CC(C)C)c2ccc(C(=O)NCCC(=O)O)cc2)c1 (racemic)
Ki (Glucagon receptor): 85 nM

CC(C)CC(c1ccc(C(=O)NCCC(=O)O)cc1)n1ncc2cc(-c3ccc(C(C)(C)C)cc3)ccc21 (racemic)
Ki (Glucagon receptor): 125 nM

Cc1cc(-c2ccc(C(C)(C)C)cc2)cc2cn(C(CC(C)C)c3ccc(C(=O)NCCC(=O)O)cc3)nc12 (racemic)
Ki (Glucagon receptor): 1340 nM

CC(C)CC(c1ccc(C(=O)NCCC(=O)O)cc1)n1ncc2cc(-c3ccc(N4CCOCC4)cc3)ccc21 (racemic)
Ki (Glucagon receptor): 3000 nM

CC(C)CC(c1ccc(C(=O)NCCC(=O)O)cc1)n1ncc2cc(-c3ccc(C(F)(F)F)cc3)ccc21 (racemic)
Ki (Glucagon receptor): 260 nM

CC(C)CC(c1ccc(C(=O)NCCC(=O)O)cc1)n1ncc2cc(-c3ccc(OC(F)(F)F)cc3)ccc21 (racemic)
Ki (Glucagon receptor): 285 to 650 nM

Cc1cc(C(F)(F)F)ccc1-c1cc2cnn(C(CC(C)C)c3ccc(C(=O)NCCC(=O)O)nc3)c2cc1C (racemic)
clearance [1]: 4.83 mL/min/kg | Vd [2]: 1.85 L/kg | half-life [3]: 300 min | half-life [7]: 288 min | AUC(0-t) [4]: 111 µM·h | Cmax [5]: 11.1 µM | bioavailability [6]: 94.7%

CC(C)CC(c1ccc(C(=O)NCCC(=O)O)cc1)n1ccc2cc(-c3ccc(C(C)(C)C)cc3)ccc21 (racemic)
Ki (Glucagon receptor): 110 nM

CC(C)CC(c1ccc(C(=O)NCCC(=O)O)cc1)n1ncc2cc(-c3cc(Cl)cc(Cl)c3)ccc21 (racemic)
Ki (Glucagon receptor): 1650 nM

Cc1cc(-c2ccc(C(C)(C)C)cc2)cc2ccn(C(CC(C)C)c3ccc(C(=O)NCCC(=O)O)nc3)c12 (racemic)
Ki (Glucagon receptor): > 2600 nM

CC(C)CC(c1ccc(C(=O)NCCC(=O)O)cc1)n1ccc2cc(-c3ccc(C(F)(F)F)cc3)ccc21 (racemic)
Ki (Glucagon receptor): 115 nM | clearance [1]: 3.77 mL/min/kg | Vd [2]: 1.05 L/kg | half-life [3]: 222 min | half-life [7]: 234 min | AUC(0-t) [4]: 116 µM·h | Cmax [5]: 8.1 µM | bioavailability [6]: 68.7% | clearance [8]: 12.2 mL/min/kg | Vd [9]: 3.65 L/kg | half-life [10]: 276 min | half-life [11]: 312 min | AUC(0-t) [12]: 14.3 µM·h | Cmax [13]: 1400 nM | bioavailability [14]: 51.7%

Cc1cc(C(F)(F)F)ccc1-c1cc(F)c2c(ccn2C(CC(C)C)c2ccc(C(=O)NCCC(=O)O)cc2)c1C (racemic)
Ki (Glucagon receptor): 700 nM
